# Measured values as given in patent US12390437B2, “Itaconic acid derivatives and uses thereof intreating an inflammatory disease or a disease associated with an undesirable immune response” (Sitryx Therapeutics Limited, priority 2019, dated 2025).
# Test system: not listed separately
# Test: Mouse pharmacokinetic study, intravenous dosing
# Assay type: in vivo
# Settings: male, C57BL/6, mouse, iv; plasma, 10 mg/kg i.v., time 0.05 h; read-out: Parent compound concentration following intravenous administration
# How it was run: (§1)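 Oral arm: 100 mg/kg gavage in 5% DMSO with 0.5% HPMC/0.1% Tween 80, blood from 5 min to 24 h. Intravenous arm: 10 mg/kg tail-vein injection in 10% DMSO with HP-β-CD, blood from 3 min to 8 h. Male C57BL/6 mice; LC-MS/MS on plasma.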
row,concentration at 0.05 h [ng/mL],SMILES
1,28800,"C=C(CC(=O)OC(C)(C)CCCCC)C(=O)OCC(=O)O [Example 193, 2-((2-methylene-4-((2-methylheptan-2-yl)oxy)-4-oxobutanoyl)oxy)acetic acid]"

# Same assay, conditions: male, C57BL/6, mouse, iv; plasma, 10 mg/kg i.v., time 0.133 h; read-out: Parent compound concentration following intravenous administration
row,concentration at 0.133 h [ng/mL],SMILES
1,10700,"C=C(CC(=O)OC(C)(C)CCCCC)C(=O)OCC(=O)O [Example 193, 2-((2-methylene-4-((2-methylheptan-2-yl)oxy)-4-oxobutanoyl)oxy)acetic acid]"

# Same assay, conditions: male, C57BL/6, mouse, iv; plasma, 10 mg/kg i.v., time 0.25 h; read-out: Parent compound concentration following intravenous administration
row,concentration at 0.25 h [ng/mL],SMILES
1,4040,"C=C(CC(=O)OC(C)(C)CCCCC)C(=O)OCC(=O)O [Example 193, 2-((2-methylene-4-((2-methylheptan-2-yl)oxy)-4-oxobutanoyl)oxy)acetic acid]"

# Same assay, conditions: male, C57BL/6, mouse, iv; plasma, 10 mg/kg i.v., time 0.5 h; read-out: Parent compound concentration following intravenous administration
row,concentration at 0.5 h [ng/mL],SMILES
1,1450,"C=C(CC(=O)OC(C)(C)CCCCC)C(=O)OCC(=O)O [Example 193, 2-((2-methylene-4-((2-methylheptan-2-yl)oxy)-4-oxobutanoyl)oxy)acetic acid]"

# Same assay, conditions: male, C57BL/6, mouse, iv; plasma, 10 mg/kg i.v., time 1 h; read-out: Parent compound concentration following intravenous administration
row,concentration at 1 h [ng/mL],SMILES
1,134,"C=C(CC(=O)OC(C)(C)CCCCC)C(=O)OCC(=O)O [Example 193, 2-((2-methylene-4-((2-methylheptan-2-yl)oxy)-4-oxobutanoyl)oxy)acetic acid]"

# Same assay, conditions: male, C57BL/6, mouse, iv; plasma, 10 mg/kg i.v., time 2 h; read-out: Parent compound concentration following intravenous administration
row,concentration at 2 h [ng/mL],SMILES
1,16,"C=C(CC(=O)OC(C)(C)CCCCC)C(=O)OCC(=O)O [Example 193, 2-((2-methylene-4-((2-methylheptan-2-yl)oxy)-4-oxobutanoyl)oxy)acetic acid]"

# Same assay, conditions: male, C57BL/6, mouse, iv; plasma, 10 mg/kg i.v., time 4 h; read-out: Parent compound concentration following intravenous administration
row,concentration at 4 h [ng/mL],SMILES
1,4.1,"C=C(CC(=O)OC(C)(C)CCCCC)C(=O)OCC(=O)O [Example 193, 2-((2-methylene-4-((2-methylheptan-2-yl)oxy)-4-oxobutanoyl)oxy)acetic acid]"

# Same assay, conditions: male, C57BL/6, mouse, iv; plasma, 10 mg/kg i.v., time 6 h; read-out: Parent compound concentration following intravenous administration
row,concentration at 6 h [ng/mL],SMILES
1,< 4,"C=C(CC(=O)OC(C)(C)CCCCC)C(=O)OCC(=O)O [Example 193, 2-((2-methylene-4-((2-methylheptan-2-yl)oxy)-4-oxobutanoyl)oxy)acetic acid]"

# Same assay, conditions: male, C57BL/6, mouse, iv; plasma, 10 mg/kg i.v., time 8 h; read-out: Parent compound concentration following intravenous administration
row,concentration at 8 h [ng/mL],SMILES
1,< 4,"C=C(CC(=O)OC(C)(C)CCCCC)C(=O)OCC(=O)O [Example 193, 2-((2-methylene-4-((2-methylheptan-2-yl)oxy)-4-oxobutanoyl)oxy)acetic acid]"

# Test system: hepatocytes
# Test: Hepatocyte stability assay (human)
# Assay type: in vitro ADME
# Settings: 10 μM compound, 0.5×10^6 cells/mL, 60 minutes
# How it was run: (§2)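 Cryopreserved hepatocytes (viability >70%), 0.5×10^6 cells/mL in Leibovitz buffer, incubated at 37 °C with 10 μM compound (0.1% DMSO), duplicates; buffer-only incubations as negative control. Samples at 0-60 min quenched in acetonitrile, parent measured by LC-MS/MS; half-life and Clint (μL min^−1 10^−6 cells) from ln % remaining versus time slope.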
row,CIint (μL min^−1 10^−6 cells),SMILES
1,109,"C=C(CC(=O)OCCCCCCCC)C(=O)OCC(=O)O [Example 49, 2-((2-methylene-4-(octyloxy)-4-oxobutanoyl)oxy)acetic acid]"
2,243,"C=C(CC(=O)OCCCCCCCC)C(=O)OCCC(=O)O [Example 80, 3-((2-methylene-4-(octyloxy)-4-oxobutanoyl)oxy)propanoic Acid]"
3,16,"C=C(CC(=O)OC(C)(C)CCCCC)C(=O)OCC(=O)O [Example 193, 2-((2-methylene-4-((2-methylheptan-2-yl)oxy)-4-oxobutanoyl)oxy)acetic acid]"

# Test system: not listed separately
# Test: Hepatocyte stability assay (human)
# Assay type: in vitro ADME
# Settings: cryopreserved hepatocytes, 10 μM compound, 0.5×10^6 cells/mL, 60 minutes, read-out: T½
# How it was run: as §2
row,half-life at 10 μM [min],SMILES
1,13,"C=C(CC(=O)OCCCCCCCC)C(=O)OCC(=O)O [Example 49, 2-((2-methylene-4-(octyloxy)-4-oxobutanoyl)oxy)acetic acid]"
2,6,"C=C(CC(=O)OCCCCCCCC)C(=O)OCCC(=O)O [Example 80, 3-((2-methylene-4-(octyloxy)-4-oxobutanoyl)oxy)propanoic Acid]"
3,109,"C=C(CC(=O)OC(C)(C)CCCCC)C(=O)OCC(=O)O [Example 193, 2-((2-methylene-4-((2-methylheptan-2-yl)oxy)-4-oxobutanoyl)oxy)acetic acid]"

# Test system: not listed separately
# Test: Mouse pharmacokinetic study, oral administration
# Assay type: in vivo
# Settings: male, C57BL/6, mouse, plasma, po, 100 mg/kg, plasma, male C57BL/6 mice, oral gavage 100 mg/kg, 0.083 h; read-out: Parent compound concentrations following oral administration, Time 0.083 h
# How it was run: as §1
row,concentration at 0.083 h [ng/mL],SMILES
1,52900,"C=C(CC(=O)OC(C)(C)CCCCC)C(=O)OCC(=O)O [Example 193, 2-((2-methylene-4-((2-methylheptan-2-yl)oxy)-4-oxobutanoyl)oxy)acetic acid]"

# Same assay, conditions: male, C57BL/6, mouse, plasma, po, 100 mg/kg, plasma, male C57BL/6 mice, oral gavage 100 mg/kg, 0.25 h; read-out: Parent compound concentrations following oral administration, Time 0.25 h
row,concentration at 0.25 h [ng/mL],SMILES
1,536,"C=C(CC(=O)OCCCCCCCC)C(=O)OCC(=O)O [Example 49, 2-((2-methylene-4-(octyloxy)-4-oxobutanoyl)oxy)acetic acid]"
2,850,"C=C(CC(=O)OCCCCCCCC)C(=O)OCCC(=O)O [Example 80, 3-((2-methylene-4-(octyloxy)-4-oxobutanoyl)oxy)propanoic Acid]"
3,45600,"C=C(CC(=O)OC(C)(C)CCCCC)C(=O)OCC(=O)O [Example 193, 2-((2-methylene-4-((2-methylheptan-2-yl)oxy)-4-oxobutanoyl)oxy)acetic acid]"

# Same assay, conditions: male, C57BL/6, mouse, plasma, po, 100 mg/kg, plasma, male C57BL/6 mice, oral gavage 100 mg/kg, 0.5 h; read-out: Parent compound concentrations following oral administration, Time 0.5 h
row,concentration at 0.5 h [ng/mL],SMILES
1,843,"C=C(CC(=O)OCCCCCCCC)C(=O)OCC(=O)O [Example 49, 2-((2-methylene-4-(octyloxy)-4-oxobutanoyl)oxy)acetic acid]"
2,1150,"C=C(CC(=O)OCCCCCCCC)C(=O)OCCC(=O)O [Example 80, 3-((2-methylene-4-(octyloxy)-4-oxobutanoyl)oxy)propanoic Acid]"
3,31500,"C=C(CC(=O)OC(C)(C)CCCCC)C(=O)OCC(=O)O [Example 193, 2-((2-methylene-4-((2-methylheptan-2-yl)oxy)-4-oxobutanoyl)oxy)acetic acid]"

# Same assay, conditions: male, C57BL/6, mouse, plasma, po, 100 mg/kg, plasma, male C57BL/6 mice, oral gavage 100 mg/kg, 1 h; read-out: Parent compound concentrations following oral administration, Time 1 h
row,concentration at 1 h [ng/mL],SMILES
1,344,"C=C(CC(=O)OCCCCCCCC)C(=O)OCC(=O)O [Example 49, 2-((2-methylene-4-(octyloxy)-4-oxobutanoyl)oxy)acetic acid]"
2,715,"C=C(CC(=O)OCCCCCCCC)C(=O)OCCC(=O)O [Example 80, 3-((2-methylene-4-(octyloxy)-4-oxobutanoyl)oxy)propanoic Acid]"
3,8930,"C=C(CC(=O)OC(C)(C)CCCCC)C(=O)OCC(=O)O [Example 193, 2-((2-methylene-4-((2-methylheptan-2-yl)oxy)-4-oxobutanoyl)oxy)acetic acid]"

# Same assay, conditions: male, C57BL/6, mouse, plasma, po, 100 mg/kg, plasma, male C57BL/6 mice, oral gavage 100 mg/kg, 2 h; read-out: Parent compound concentrations following oral administration, Time 2 h
row,concentration at 2 h [ng/mL],SMILES
1,111,"C=C(CC(=O)OCCCCCCCC)C(=O)OCC(=O)O [Example 49, 2-((2-methylene-4-(octyloxy)-4-oxobutanoyl)oxy)acetic acid]"
2,173,"C=C(CC(=O)OCCCCCCCC)C(=O)OCCC(=O)O [Example 80, 3-((2-methylene-4-(octyloxy)-4-oxobutanoyl)oxy)propanoic Acid]"
3,2120,"C=C(CC(=O)OC(C)(C)CCCCC)C(=O)OCC(=O)O [Example 193, 2-((2-methylene-4-((2-methylheptan-2-yl)oxy)-4-oxobutanoyl)oxy)acetic acid]"

# Same assay, conditions: male, C57BL/6, mouse, plasma, po, 100 mg/kg, plasma, male C57BL/6 mice, oral gavage 100 mg/kg, 4 h; read-out: Parent compound concentrations following oral administration, Time 4 h
row,concentration at 4 h [ng/mL],SMILES
1,12,"C=C(CC(=O)OCCCCCCCC)C(=O)OCC(=O)O [Example 49, 2-((2-methylene-4-(octyloxy)-4-oxobutanoyl)oxy)acetic acid]"
2,67,"C=C(CC(=O)OCCCCCCCC)C(=O)OCCC(=O)O [Example 80, 3-((2-methylene-4-(octyloxy)-4-oxobutanoyl)oxy)propanoic Acid]"
3,920,"C=C(CC(=O)OC(C)(C)CCCCC)C(=O)OCC(=O)O [Example 193, 2-((2-methylene-4-((2-methylheptan-2-yl)oxy)-4-oxobutanoyl)oxy)acetic acid]"

# Same assay, conditions: male, C57BL/6, mouse, plasma, po, 100 mg/kg, plasma, male C57BL/6 mice, oral gavage 100 mg/kg, 6 h; read-out: Parent compound concentrations following oral administration, Time 6 h
row,concentration at 6 h [ng/mL],SMILES
1,55,"C=C(CC(=O)OC(C)(C)CCCCC)C(=O)OCC(=O)O [Example 193, 2-((2-methylene-4-((2-methylheptan-2-yl)oxy)-4-oxobutanoyl)oxy)acetic acid]"

# Same assay, conditions: male, C57BL/6, mouse, plasma, po, 100 mg/kg, plasma, male C57BL/6 mice, oral gavage 100 mg/kg, 8 h; read-out: Parent compound concentrations following oral administration, Time 8 h
row,concentration at 8 h [ng/mL],SMILES
1,4.5,"C=C(CC(=O)OCCCCCCCC)C(=O)OCC(=O)O [Example 49, 2-((2-methylene-4-(octyloxy)-4-oxobutanoyl)oxy)acetic acid]"
2,< 1.5,"C=C(CC(=O)OCCCCCCCC)C(=O)OCCC(=O)O [Example 80, 3-((2-methylene-4-(octyloxy)-4-oxobutanoyl)oxy)propanoic Acid]"
3,19,"C=C(CC(=O)OC(C)(C)CCCCC)C(=O)OCC(=O)O [Example 193, 2-((2-methylene-4-((2-methylheptan-2-yl)oxy)-4-oxobutanoyl)oxy)acetic acid]"

# Same assay, conditions: male, C57BL/6, mouse, plasma, po, 100 mg/kg, plasma, male C57BL/6 mice, oral gavage 100 mg/kg, 24 h; read-out: Parent compound concentrations following oral administration, Time 24 h
row,concentration at 24 h [ng/mL],SMILES
1,< 1.5,"C=C(CC(=O)OCCCCCCCC)C(=O)OCC(=O)O [Example 49, 2-((2-methylene-4-(octyloxy)-4-oxobutanoyl)oxy)acetic acid]"
2,< 1.5,"C=C(CC(=O)OCCCCCCCC)C(=O)OCCC(=O)O [Example 80, 3-((2-methylene-4-(octyloxy)-4-oxobutanoyl)oxy)propanoic Acid]"
3,5.6,"C=C(CC(=O)OC(C)(C)CCCCC)C(=O)OCC(=O)O [Example 193, 2-((2-methylene-4-((2-methylheptan-2-yl)oxy)-4-oxobutanoyl)oxy)acetic acid]"

# Test system: IL-6 cytokine output from THP-1s
# Test: THP-1 AlphaLISA IL-6 cytokine assay
# Assay type: cell-based, human
# Settings: Homo sapiens; PMA-differentiated THP-1 cells, LPS 24 hr then Nigericin 1 hour
# How it was run: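 Cells are differentiated with PMA over 72 h, switched to 1% FBS medium and treated with compound for 30 min before LPS stimulation for 24 h. Nigericin is added for a final hour, and secreted cytokine is measured by AlphaLISA, with IC50 fitted from percent inhibition.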
row,IC50 [µM],SMILES
1,5.5,"C=C(CC(=O)OCCCCCCCC)C(=O)OCC(=O)O [Example 49, 2-((2-methylene-4-(octyloxy)-4-oxobutanoyl)oxy)acetic acid]"
2,5.3,"C=C(CC(=O)OCCCCCCCC)C(=O)OCCC(=O)O [Example 80, 3-((2-methylene-4-(octyloxy)-4-oxobutanoyl)oxy)propanoic Acid]"
